Data: patent publication US20140017302A1, “OPTIMISED PREPARATIONS OF HIGHLY ADAPTABLE AGGREGATES” (priority 2011, published 2014)

Legend:
[1] = cited from earlier work; for pK (first value): buffer/salt of Table 1
[2] = Drug payload limit: terbinafine concentration at minimum vesicularisation time (FIG. 1 inset); type: physicochemical; conditions: for payload (concentration at minimum vesicularisation time): phosphatidylcholine vesicles + 5 wt.-% ethanol, azeleate buffer 0.05 M
Excerpt: FIG. 1 is a schematic representation of experiments carried out to show an effect of buffer (ionic additive) selection on the vesicularisation time of reference (i.e. containing >90% pure soybean phosphatidylcholine) vesicles and of vesicles loaded with terbinafine as a function of the bulk pH. The results of an additional test series, in which an increasing amount of terbinafine was incorporated into phosphatidylcholine vesicles (at 10 wt-%-terbinafine concentration+5 wt.-% ethanol) dispersed in azeleate buffer (0.05 M) are shown in the Inset for pH=4.55±0.1 (diamonds) and pH=3.6±0.1 (down-arrow).

[3] = Vesicularisation time: sonication of a crude suspension until opalescent/transparent, followed by turbidity; type: physicochemical
Excerpt: The term aggregate “adaptability” is herein closely related to “deformability” and can be measured using previously described methods (e.g. Wachter et al., 2008, J. Drug Targeting 16: 611). In principle, most of these methods assess the penetration of a nanoporous, semipermeable barrier by the tested aggregates in a suspension, presuming no significant aggregate fragmentation during penetration. In an alternative method, the kinetics of aggregate fragmentation under greater external stress is studied, e.g., during ultrasonication. An aggregate is considered to have an ultradeformable bilayer for purposes of the invention if its adaptability is close to or at about the highest value achievable without an appreciable, and normally spontaneous, aggregate fragmentation into smaller structures, e.g. micelles.
The term “vesicularisation time” refers to the time required to transform an originally opaque suspension (i.e. having an optical density >>3) to an opalescent/transparent suspension with a much lower optical density using external stress, e.g. generated with an ultrasound transducer, high-shear homogeniser (Ultra-Turrax®, IKA) or rotor-stator homogeniser. […]
A first consideration is that the chosen pH is far enough from the tested aggregate surface pKa,mem to exclude ionisation changes during a test; otherwise, experiments must be conducted at two or more constant, yet different, pH values and then analysed together allowing for the pH effects. […]
In a simpler and more qualitative alternative assay, one compares the test sample turbidity with an appropriate opalescent/transparent reference suspension turbidity. A series of readings taken for each representative sample at different times can likewise reveal temporal stability. Experimental data generated with this method confirmed the independency of the conclusions drawn from individual turbidity readouts for the preparations of the invention: within experimental error limits, the difference between the time required to generate more or less, but always similarly turbid suspension is generally the same. […]

[4] = T=310 K, phospholipid plus drug ~10 w-%

| SMILES | pK1 ([1]; buffer of Table 4) | pK (first value) [1] | pK2 ([1]; buffer of Table 4) | further results |
| --- | --- | --- | --- | --- |
| OCCN1CCCC1 [1-Pyrrolidineethanol (epolamine), 1-Pyrrolidineethanol] | 9.8 | 9.8 | – | – |
| CC(=O)O [Acetic acid] | – | 4.8 | – | – |
| O=C(O)CN(CCO)CCO [Bicine] | 8.5 | – | 1.9 | – |
| OCCN(CCO)C(CO)(CO)CO [Bis-TRIS] | 6.5 | – | – | – |
| C[N+](C)(C)CCO.[Cl-] [Choline, chloride] | 13.9 | – | – | – |
| CCNCC [Diethylamine] | 10.6 | – | – | – |
| O=C(O)[C@H](O)[C@@H](O)[C@H](O)[C@H](O)CO [Gluconic acid] | – | 3.6 | – | – |
| O=S(=O)(O)CCN1CCN(CCO)CC1 [HEPES] | 7.6 | – | 1.7 | – |
| Cl [Hydrochloric acid, sodium, Hydrochloric acid] | – | −9.3 | – | – |
| c1c[nH]cn1 [Imidazole] | 14.5 | 6.9 | 6.9 | – |
| NCCCC[C@H](N)C(=O)O [Lysine] | 10.5 | – | 9.1 | pK3 ([1]; buffer of Table 4): 2.2 |
| OCCN1CCOCC1 [Morpholinoethanol] | 7.4 | 7.4 | – | – |
| O=S(=O)(O)CCN1CCN(CCS(=O)(=O)O)CC1 [PIPES] | 7.1 | – | 0.4 | – |
| O=C1CC[C@@H](C(=O)O)N1 [Pyroglutamic acid (pidolic acid), Pyroglutamic acid] | – | 3.5 | – | – |
| [Na+].[OH-] [Sodium hydroxyde, NaCl, Sodium hydroxyde] | – | 13.0 | – | – |
| O=S(=O)(O)O [Sulphuric acid] | −3 | – | 1.9 | – |
| O=C(O)CNC(CO)(CO)CO [Tricine] | 8.2 | – | 2.3 | – |
| O=C(O)CCCCCCCC(=O)O [azaleic acid, Azelaic acid] | – | – | – | log P [1]: > 1 |
| O=C(c1ccccc1)c1ccc2n1CCC2C(=O)O (stereo not drawn) [ketorolac, reference compound] | – | – | – | log Pmem^I ([1]; best estimates): ~0.8; log Pmem^N ([1]; best estimates): ~2.3; pK ([1]; best estimates): 3.5; pKa,mem ([1]; best estimates): ~5.5 |
| Cc1ccc(S(=O)(=O)O)cc1 [p-Toluenesulfonic acid] | – | 0.7 | – | – |
| CN(C/C=C/C#CC(C)(C)C)Cc1cccc2ccccc12 [terbinafine] | – | – | – | de/protonation constant in a membrane, pKa,mem [1, 4]: 5.5; de/protonation constant in the bulk, pK [1, 4]: 7.05; water-membrane partition ratio, ionised drug form, log Pmem^I [1, 4]: 3.78; water-membrane partition ratio, neutral drug form, log Pmem^N [1, 4]: 5.19; payload limit (concentration at minimum vesicularisation time) ([2]; aggregate suspensions in phosphate buffer of comparable pH): < 10 wt.-%; higher payload in azeleate buffer compared with phosphate buffer ([2]; comparable pH): at least 50%; payload (concentration at minimum vesicularisation time) ([2]; pH=3.6): ~20%; payload (concentration at minimum vesicularisation time) ([2]; pH=4.55): ~15%; vesicularisation time ([3]; 10 wt.-% total amphipat including 20 rel-% terbinafine, phosphate buffer, pH~4.4): exceeds 200 s; sonication time (vesicularisation time) ([3]; terbinafine + phosphatidylcholine, 0.1 M phosphate buffer, pH=5.7, fails to produce small aggregates above the precipitate): exceeding 1400 s; time needed to prepare drug-loaded aggregates ([3]; terbinafine + phosphatidylcholine, phosphate buffer, pH=5.2): around 700 s |
